Experimental data: ChEMBL document CHEMBL1143865, “Pyrazinoindolone inhibitors of MAPKAP-K2” (Bioorg Med Chem Lett, 2008)
Blank lines part the entries; values can stand above or below the molecule they belong to. Calls of active or inactive are those of the source. The calls are words filed in the database; no cut-off is given here.

Key:
THP-1 = assay: Inhibition of LPS-induced TNFalpha production in human THP1 cells
[1] = Solubility at pH 7.4; format: physicochemical; details: buffer
[2] = target: MAP kinase-activated protein kinase 2 (Homo sapiens, UniProt P49137)
Mus musculus [3] = assay: Clearance in BALB/c mouse at 0.5 mg/kg, iv expressed as %Q; format: ADME, organism-based; design: dose 0.5 mg/kg, route intravenous; details: in vivo
[4] = Mean retention time in BALB/c mouse at 0.5 mg/kg, iv; format: ADME, organism-based; design: dose 0.5 mg/kg, route intravenous; details: in vivo
[5] = AUC (0 to infinity) in BALB/c mouse at 0.5 mg/kg, iv; format: ADME, organism-based; design: time infinity, dose 0.5 mg/kg, route intravenous; details: plasma
[6] = Cmax in BALB/c mouse at 1.0 mg/kg, po; format: ADME, organism-based; design: dose 1 mg/kg, route oral; details: in vivo
[7] = AUC (0 to infinity) in BALB/c mouse at 1.0 mg/kg, po; format: ADME, organism-based; design: time infinity, dose 1 mg/kg, route oral; details: plasma
[8] = Oral bioavailability in BALB/c mouse at 1.0 mg/kg; format: ADME, organism-based; details: in vivo
Mus musculus [9] = assay: Inhibition of LPS-stimulated TNFalpha production in mouse at 60 mg/kg, po; format: functional, organism-based; design: dose 60 mg/kg
[10] = Drug level in mouse plasma at 60 mg/kg, po after 90 mins; format: ADME, organism-based; design: dose 60 mg/kg, route oral
[11] = target: Mitogen-activated protein kinase 1 (Homo sapiens, UniProt P28482); assay: Inhibition of Erk2
[12] = target: Serine/threonine-protein kinase Chk2 (Homo sapiens) (UniProt O96017); assay: Inhibition of CHK2 at 10 uM
[13] = Inhibition of AMPK at 10 uM
[14] = Inhibition of MAPKAP-K1
[15] = target: T1, Lymphokine-activated killer T-cell-originated protein kinase (Homo sapiens) (UniProt Q96KB5); assay: Inhibition of PBK at 10 uM
T1 sequence (whole entry): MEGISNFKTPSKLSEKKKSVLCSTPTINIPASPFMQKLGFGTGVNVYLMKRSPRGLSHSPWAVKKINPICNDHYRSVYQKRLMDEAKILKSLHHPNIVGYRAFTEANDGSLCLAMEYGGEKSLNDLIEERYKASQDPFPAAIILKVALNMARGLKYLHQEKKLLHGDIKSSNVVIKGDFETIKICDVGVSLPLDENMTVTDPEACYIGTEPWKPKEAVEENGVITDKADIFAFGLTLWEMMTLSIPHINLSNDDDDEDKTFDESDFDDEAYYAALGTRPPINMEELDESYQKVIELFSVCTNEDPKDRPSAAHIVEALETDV

[16] = target: Dual specificity tyrosine-phosphorylation-regulated kinase 1A (Homo sapiens) (UniProt Q13627); assay: Inhibition of DYRK1A at 10 uM
[17] = target: T2, Mitogen-activated protein kinase 15 (Homo sapiens) (UniProt Q8TD08); assay: Inhibition of ERK8 at 10 uM
T2 sequence (whole entry): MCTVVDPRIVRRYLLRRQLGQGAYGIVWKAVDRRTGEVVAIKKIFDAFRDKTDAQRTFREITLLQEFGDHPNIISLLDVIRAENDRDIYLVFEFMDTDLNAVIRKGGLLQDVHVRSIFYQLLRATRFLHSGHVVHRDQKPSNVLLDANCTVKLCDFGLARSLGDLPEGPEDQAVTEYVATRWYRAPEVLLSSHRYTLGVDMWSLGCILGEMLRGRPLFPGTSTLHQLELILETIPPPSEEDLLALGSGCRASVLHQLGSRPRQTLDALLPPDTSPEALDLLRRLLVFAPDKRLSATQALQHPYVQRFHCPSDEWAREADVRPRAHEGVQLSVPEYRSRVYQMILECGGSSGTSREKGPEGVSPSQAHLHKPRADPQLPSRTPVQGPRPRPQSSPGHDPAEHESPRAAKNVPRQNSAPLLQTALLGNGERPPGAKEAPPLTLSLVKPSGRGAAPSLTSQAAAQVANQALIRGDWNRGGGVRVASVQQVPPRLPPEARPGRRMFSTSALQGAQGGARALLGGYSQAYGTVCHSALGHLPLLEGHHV

[18] = target: T3, Serine/threonine-protein kinase 3 (Homo sapiens) (UniProt Q13188); assay: Inhibition of MST2 at 10 uM
T3 sequence (whole entry): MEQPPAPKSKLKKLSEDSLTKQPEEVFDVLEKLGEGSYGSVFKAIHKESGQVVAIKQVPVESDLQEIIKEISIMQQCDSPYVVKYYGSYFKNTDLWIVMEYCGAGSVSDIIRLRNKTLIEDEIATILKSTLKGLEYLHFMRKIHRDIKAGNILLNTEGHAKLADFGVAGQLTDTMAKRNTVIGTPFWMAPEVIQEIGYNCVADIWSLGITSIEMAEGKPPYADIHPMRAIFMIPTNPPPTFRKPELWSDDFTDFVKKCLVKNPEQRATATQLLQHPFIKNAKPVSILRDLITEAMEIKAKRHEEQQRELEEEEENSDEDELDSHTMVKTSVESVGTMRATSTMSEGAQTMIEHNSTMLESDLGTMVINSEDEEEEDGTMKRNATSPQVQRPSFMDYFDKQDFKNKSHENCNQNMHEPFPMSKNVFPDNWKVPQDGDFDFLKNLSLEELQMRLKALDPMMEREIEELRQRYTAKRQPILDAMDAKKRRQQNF

[19] = target: Dual specificity protein kinase CLK1 (Homo sapiens, UniProt P49759); assay: Inhibition of CLK1
[20] = target: Mitogen-activated protein kinase kinase kinase 14 (Homo sapiens, UniProt Q99558); assay: Inhibition of NIK
[21] = target: T4, MAP kinase-activated protein kinase 5 (Homo sapiens) (UniProt Q8IW41); assay: Inhibition of PRAK at 10 uM
T4 sequence (whole entry): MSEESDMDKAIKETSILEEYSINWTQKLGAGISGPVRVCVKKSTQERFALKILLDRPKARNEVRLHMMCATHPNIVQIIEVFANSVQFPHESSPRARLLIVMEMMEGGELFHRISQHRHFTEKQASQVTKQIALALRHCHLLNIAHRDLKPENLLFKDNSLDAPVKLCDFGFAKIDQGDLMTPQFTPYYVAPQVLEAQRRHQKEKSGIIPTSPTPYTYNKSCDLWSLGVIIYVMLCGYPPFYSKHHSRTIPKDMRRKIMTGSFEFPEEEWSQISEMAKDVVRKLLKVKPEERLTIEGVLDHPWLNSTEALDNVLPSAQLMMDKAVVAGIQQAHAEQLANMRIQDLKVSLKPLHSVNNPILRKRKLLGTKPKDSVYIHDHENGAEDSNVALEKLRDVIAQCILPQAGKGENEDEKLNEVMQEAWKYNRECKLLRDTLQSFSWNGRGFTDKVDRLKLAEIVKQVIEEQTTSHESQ

[22] = target: SRSF protein kinase 1 (Homo sapiens) (UniProt Q96SB4); assay: Inhibition of SRPK1 at 10 uM
[23] = target: Rho-associated protein kinase 2 (Homo sapiens) (UniProt O75116); assay: Inhibition of ROCK2 at 10 uM
[24] = target: Glycogen synthase kinase-3 beta (Homo sapiens, UniProt P49841); assay: Inhibition of GSK3-beta
[25] = Inhibition of MNK2alpha at 10 uM
[26] = target: 3-phosphoinositide-dependent protein kinase 1 (Homo sapiens) (UniProt O15530); assay: Inhibition of PDK1 at 10 uM
Sequence of 3-phosphoinositide-dependent protein kinase 1 (Homo sapiens) (O15530 whole entry, looked up): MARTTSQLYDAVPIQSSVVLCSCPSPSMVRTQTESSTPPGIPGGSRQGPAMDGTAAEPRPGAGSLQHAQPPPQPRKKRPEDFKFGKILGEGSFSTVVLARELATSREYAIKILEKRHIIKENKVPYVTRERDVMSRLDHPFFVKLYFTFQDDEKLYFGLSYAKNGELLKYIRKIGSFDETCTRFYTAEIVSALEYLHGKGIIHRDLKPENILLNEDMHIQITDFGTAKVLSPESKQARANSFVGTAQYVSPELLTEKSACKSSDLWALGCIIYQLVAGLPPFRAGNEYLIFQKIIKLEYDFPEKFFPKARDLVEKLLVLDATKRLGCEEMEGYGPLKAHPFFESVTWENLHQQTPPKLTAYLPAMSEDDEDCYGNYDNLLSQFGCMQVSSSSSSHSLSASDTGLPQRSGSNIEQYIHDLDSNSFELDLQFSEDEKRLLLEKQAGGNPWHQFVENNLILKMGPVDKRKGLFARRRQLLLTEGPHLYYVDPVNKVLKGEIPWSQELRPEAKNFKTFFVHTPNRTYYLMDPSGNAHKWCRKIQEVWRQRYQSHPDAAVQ

Sequence of MAP kinase-activated protein kinase 2 (P49137 whole entry): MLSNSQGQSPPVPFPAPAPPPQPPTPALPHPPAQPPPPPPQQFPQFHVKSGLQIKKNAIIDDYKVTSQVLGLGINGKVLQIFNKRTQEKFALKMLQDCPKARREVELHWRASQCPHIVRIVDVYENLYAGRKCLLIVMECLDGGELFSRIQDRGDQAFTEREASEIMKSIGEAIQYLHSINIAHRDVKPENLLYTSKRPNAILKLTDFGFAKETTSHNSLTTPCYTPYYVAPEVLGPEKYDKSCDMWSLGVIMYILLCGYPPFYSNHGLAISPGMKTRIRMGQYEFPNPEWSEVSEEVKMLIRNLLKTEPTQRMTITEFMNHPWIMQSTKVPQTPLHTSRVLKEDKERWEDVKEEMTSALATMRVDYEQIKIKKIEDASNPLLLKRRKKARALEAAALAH
Sequence of Mitogen-activated protein kinase kinase kinase 14 (Q99558 whole entry): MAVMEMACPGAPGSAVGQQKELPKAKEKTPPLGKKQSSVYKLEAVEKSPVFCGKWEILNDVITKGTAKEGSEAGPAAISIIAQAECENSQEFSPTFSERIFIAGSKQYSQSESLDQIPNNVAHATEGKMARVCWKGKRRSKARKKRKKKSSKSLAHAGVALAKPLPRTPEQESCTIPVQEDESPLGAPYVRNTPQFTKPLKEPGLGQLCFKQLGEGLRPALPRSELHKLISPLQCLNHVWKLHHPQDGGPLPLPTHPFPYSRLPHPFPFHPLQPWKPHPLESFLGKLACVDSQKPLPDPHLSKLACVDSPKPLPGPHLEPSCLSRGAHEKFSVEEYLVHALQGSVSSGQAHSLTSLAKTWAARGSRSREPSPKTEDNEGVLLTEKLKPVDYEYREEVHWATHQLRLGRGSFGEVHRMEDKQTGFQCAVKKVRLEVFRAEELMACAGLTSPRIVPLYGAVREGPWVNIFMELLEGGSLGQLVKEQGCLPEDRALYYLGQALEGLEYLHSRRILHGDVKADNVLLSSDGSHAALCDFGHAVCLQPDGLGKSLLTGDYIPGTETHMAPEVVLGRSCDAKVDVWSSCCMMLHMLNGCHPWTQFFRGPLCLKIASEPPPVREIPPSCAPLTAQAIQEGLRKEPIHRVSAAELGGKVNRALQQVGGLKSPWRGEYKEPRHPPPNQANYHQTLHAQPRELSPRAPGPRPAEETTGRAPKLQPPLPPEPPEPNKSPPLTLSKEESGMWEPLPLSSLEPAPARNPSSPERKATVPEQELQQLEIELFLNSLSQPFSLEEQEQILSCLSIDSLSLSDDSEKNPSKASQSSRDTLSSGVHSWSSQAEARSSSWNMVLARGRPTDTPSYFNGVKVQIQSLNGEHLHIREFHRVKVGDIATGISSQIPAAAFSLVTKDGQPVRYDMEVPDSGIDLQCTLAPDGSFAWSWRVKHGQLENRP
Sequence of Mitogen-activated protein kinase 1 (P28482 whole entry): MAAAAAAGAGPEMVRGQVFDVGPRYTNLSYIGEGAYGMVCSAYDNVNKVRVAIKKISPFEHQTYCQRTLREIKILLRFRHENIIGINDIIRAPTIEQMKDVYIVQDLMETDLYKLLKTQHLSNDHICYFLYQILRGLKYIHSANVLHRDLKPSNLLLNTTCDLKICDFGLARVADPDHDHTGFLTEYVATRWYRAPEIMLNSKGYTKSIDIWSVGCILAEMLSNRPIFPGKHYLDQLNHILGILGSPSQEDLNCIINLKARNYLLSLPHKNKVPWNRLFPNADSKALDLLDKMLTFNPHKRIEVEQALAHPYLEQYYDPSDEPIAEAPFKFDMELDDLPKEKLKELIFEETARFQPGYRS
Sequence of Rho-associated protein kinase 2 (Homo sapiens) (O75116 whole entry, looked up): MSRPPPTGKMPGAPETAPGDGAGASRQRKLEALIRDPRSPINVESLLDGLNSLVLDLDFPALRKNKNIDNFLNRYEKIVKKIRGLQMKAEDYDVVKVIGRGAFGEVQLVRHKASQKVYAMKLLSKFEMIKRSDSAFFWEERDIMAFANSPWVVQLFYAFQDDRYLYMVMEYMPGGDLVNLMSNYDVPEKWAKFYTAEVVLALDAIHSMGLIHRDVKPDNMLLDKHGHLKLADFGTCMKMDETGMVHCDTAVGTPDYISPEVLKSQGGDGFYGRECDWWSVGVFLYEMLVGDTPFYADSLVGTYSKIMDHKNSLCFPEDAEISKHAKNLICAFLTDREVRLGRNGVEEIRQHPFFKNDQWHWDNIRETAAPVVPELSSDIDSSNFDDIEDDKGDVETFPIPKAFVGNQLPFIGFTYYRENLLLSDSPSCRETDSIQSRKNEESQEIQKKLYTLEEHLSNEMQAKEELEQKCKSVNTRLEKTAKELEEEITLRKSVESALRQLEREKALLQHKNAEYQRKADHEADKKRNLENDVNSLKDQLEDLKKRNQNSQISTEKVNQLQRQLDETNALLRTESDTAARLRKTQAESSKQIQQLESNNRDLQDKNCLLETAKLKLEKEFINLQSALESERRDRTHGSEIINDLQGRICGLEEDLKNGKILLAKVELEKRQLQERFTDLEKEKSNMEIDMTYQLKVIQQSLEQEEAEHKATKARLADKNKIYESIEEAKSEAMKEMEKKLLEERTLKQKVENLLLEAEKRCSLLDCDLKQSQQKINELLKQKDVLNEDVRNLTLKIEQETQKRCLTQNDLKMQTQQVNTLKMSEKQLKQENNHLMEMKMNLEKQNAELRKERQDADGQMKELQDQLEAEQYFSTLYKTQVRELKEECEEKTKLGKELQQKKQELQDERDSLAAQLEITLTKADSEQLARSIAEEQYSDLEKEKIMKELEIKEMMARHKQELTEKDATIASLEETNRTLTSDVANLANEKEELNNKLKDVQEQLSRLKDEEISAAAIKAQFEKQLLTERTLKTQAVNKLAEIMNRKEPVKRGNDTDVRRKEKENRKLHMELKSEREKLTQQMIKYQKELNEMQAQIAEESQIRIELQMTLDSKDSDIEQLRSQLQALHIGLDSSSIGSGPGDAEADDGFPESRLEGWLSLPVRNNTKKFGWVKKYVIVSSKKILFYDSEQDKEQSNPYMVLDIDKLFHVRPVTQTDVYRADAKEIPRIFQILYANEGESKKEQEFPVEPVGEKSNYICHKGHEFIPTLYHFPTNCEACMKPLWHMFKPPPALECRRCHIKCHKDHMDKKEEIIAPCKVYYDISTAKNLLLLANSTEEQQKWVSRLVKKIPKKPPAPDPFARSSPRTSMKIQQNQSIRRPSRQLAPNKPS
Sequence of Dual specificity protein kinase CLK1 (P49759 whole entry): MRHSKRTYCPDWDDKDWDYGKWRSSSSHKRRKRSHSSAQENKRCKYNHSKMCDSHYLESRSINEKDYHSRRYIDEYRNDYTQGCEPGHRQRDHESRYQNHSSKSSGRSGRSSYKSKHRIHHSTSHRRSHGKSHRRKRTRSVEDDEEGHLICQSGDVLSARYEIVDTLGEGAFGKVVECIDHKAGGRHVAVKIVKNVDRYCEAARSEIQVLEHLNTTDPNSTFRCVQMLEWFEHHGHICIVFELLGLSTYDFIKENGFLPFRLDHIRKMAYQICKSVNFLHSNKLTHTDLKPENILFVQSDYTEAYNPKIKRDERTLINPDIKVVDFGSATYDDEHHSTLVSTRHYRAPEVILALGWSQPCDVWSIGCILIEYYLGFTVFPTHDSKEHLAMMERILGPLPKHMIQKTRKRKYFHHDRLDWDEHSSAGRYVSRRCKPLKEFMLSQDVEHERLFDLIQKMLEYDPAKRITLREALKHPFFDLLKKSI
Sequence of SRSF protein kinase 1 (Homo sapiens) (Q96SB4 whole entry): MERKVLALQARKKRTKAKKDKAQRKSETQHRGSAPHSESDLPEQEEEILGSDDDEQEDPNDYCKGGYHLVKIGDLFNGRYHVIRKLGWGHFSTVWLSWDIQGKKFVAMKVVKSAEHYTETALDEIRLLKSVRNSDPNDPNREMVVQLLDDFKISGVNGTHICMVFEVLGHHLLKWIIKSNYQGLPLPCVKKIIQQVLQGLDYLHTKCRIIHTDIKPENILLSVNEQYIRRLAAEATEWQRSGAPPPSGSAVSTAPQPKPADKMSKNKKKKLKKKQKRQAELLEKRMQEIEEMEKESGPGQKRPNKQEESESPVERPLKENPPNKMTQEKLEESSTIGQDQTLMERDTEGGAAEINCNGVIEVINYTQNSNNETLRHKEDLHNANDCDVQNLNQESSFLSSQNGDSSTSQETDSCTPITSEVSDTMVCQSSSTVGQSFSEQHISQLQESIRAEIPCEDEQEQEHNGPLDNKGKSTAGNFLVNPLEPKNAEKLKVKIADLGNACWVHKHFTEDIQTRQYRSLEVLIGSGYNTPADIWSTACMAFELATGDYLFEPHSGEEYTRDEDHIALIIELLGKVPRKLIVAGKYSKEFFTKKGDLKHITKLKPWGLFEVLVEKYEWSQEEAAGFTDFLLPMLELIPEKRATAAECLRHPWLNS

IC50 (THP-1): > 5000 nM
SMILES: CC1CNC(=O)c2cc3ccc(C(=O)Nc4nc(C(=O)NC5CCN(C)CC5)cs4)cc3n21 (stereo unspecified)

IC50 (THP-1): 520 nM
SMILES: O=C(Nc1nc(C(=O)NC2CCN(Cc3ccccc3)CC2)cs1)c1ccc2cc3n(c2c1)C1(CCC1)CNC3=O

IC50 (THP-1): 1700 nM
SMILES: CN1CCC(NC(=O)c2csc(NC(=O)c3ccc4cc5n(c4c3)C3(CCC3)CNC5=O)n2)CC1

solubility [1]: < 0.1 µg/mL
CL(%Q) (Mus musculus [3]): 18%
MRT [4]: 0.8 h
AUC(0-inf) [5]: 525 ng·h/mL
Cmax [6]: 60 nM
AUC(0-inf) [7]: 88 ng·h/mL
bioavailability [8]: 8%
SMILES: CC1CNC(=O)c2[nH]c3ccc(C(=O)Nc4nc(C(=O)NC5CCCCC5)cs4)cc3c21 (stereo unspecified)

IC50 (THP-1): 1400 nM
solubility [1]: < 0.1 µg/mL
CL(%Q) (Mus musculus [3]): 18%
MRT [4]: 2 h
AUC(0-inf) [5]: 535 ng·h/mL
Cmax [6]: 80 nM
AUC(0-inf) [7]: 115 ng·h/mL
bioavailability [8]: 11%
IC50 [2]: 20 nM
SMILES: CC1CNC(=O)c2cc3ccc(C(=O)Nc4nc(C(=O)NC5CCCCC5)cs4)cc3n21 (stereo unspecified)

IC50 (THP-1): 1000 nM
IC50 [2]: 19 nM
SMILES: CC1(C)CNC(=O)c2cc3ccc(C(=O)Nc4nc(C(=O)NC5CCCCC5)cs4)cc3n21

IC50 (THP-1): 735 nM
solubility [1]: > 30 µg/mL
concentration at 1.5 h [10]: 690 nM
SMILES: CC1CNC(=O)c2cc3ccc(C(=O)Nc4nc(C(=O)NC5CCN(CC(C)(C)C)CC5)cs4)cc3n21 (stereo unspecified)
Activity (Mus musculus [9]): inactive

IC50 (THP-1): 2400 nM
SMILES: CN1CCC(NC(=O)c2csc(NC(=O)c3ccc4cc5n(c4c3)C(C)(C)CNC5=O)n2)CC1

The remaining lines, values behind:

SMILES: CC(C)CN1CCC(NC(=O)c2csc(NC(=O)c3ccc4cc5n(c4c3)C(C)CNC5=O)n2)CC1 (stereo unspecified)
IC50 (THP-1): 1670 nM
solubility [1]: > 30 µg/mL

SMILES: CC1(C)CNC(=O)c2cc3ccc(C(=O)Nc4nc(C(=O)NC5CCN(Cc6ccccc6)CC5)cs4)cc3n21
IC50 (THP-1): 900 nM

SMILES: CCN1CCC(NC(=O)c2csc(NC(=O)c3ccc4cc5n(c4c3)C(C)CNC5=O)n2)CC1 (stereo unspecified)
IC50 (THP-1): 8900 nM
solubility [1]: > 30 µg/mL
IC50 [2]: 7 nM

SMILES: CC(C)(C)CN1CCC(NC(=O)c2csc(NC(=O)c3ccc4cc5n(c4c3)C(C)(C)CNC5=O)n2)CC1
IC50 (THP-1): 430 nM

SMILES: CC1CNC(=O)c2cc3ccc(C(=O)Nc4nc(C(=O)NC5CCOCC5)cs4)cc3n21 (stereo unspecified)
IC50 (THP-1): 5800 nM
IC50 [2]: 12 nM

SMILES: CC1CNC(=O)c2cc3ccc(C(=O)Nc4nc(C(=O)NCC(C)(C)C)cs4)cc3n21 (stereo unspecified)
IC50 (THP-1): 2700 nM
IC50 [2]: 46 nM

SMILES: CC1CNC(=O)c2cc3ccc(C(=O)Nc4nc(C(=O)NC5CCN(Cc6ccccc6)CC5)cs4)cc3n21 (stereo unspecified)
IC50 (THP-1): 1600 nM
solubility [1]: > 30 µg/mL

SMILES: CC(C)(C)CN1CCC(NC(=O)c2csc(NC(=O)c3ccc4cc5n(c4c3)C3(CCC3)CNC5=O)n2)CC1
IC50 [11]: > 3000 nM
IC50 (THP-1): 300 nM
solubility [1]: > 96 µg/mL
inhibition [12]: 84%
inhibition [13]: 98%
IC50 [14]: 25 nM
inhibition [15]: 75%
inhibition [16]: 94%
inhibition [17]: 82%
inhibition [18]: 86%
IC50 [19]: 93 nM
IC50 [20]: 480 nM
inhibition [21]: 98%
inhibition [22]: 60%
inhibition [23]: 63%
IC50 [24]: 920 nM
inhibition [25]: 80%
CL(%Q) (Mus musculus [3]): 30%
MRT [4]: 6.1 h
AUC(0-inf) [5]: 165 ng·h/mL
Cmax [6]: 60 nM
AUC(0-inf) [7]: 446 ng·h/mL
bioavailability [8]: > 100%
inhibition [26]: 92%

SMILES: CC1CNC(=O)c2[nH]c3ccc(C(=O)Nc4nc(C(=O)NC5CCN(C)CC5)cs4)cc3c21 (stereo unspecified)
IC50 (THP-1): > 5000 nM

SMILES: CC1CCC(NC(=O)c2csc(NC(=O)c3ccc4cc5n(c4c3)C(C)CNC5=O)n2)CC1 (stereo unspecified)
IC50 (THP-1): 1800 nM
IC50 [2]: 45 nM
